The record followed here is patent US20260183303A1, “PDK1 REGULATORY COMPOUND AND COMPOSITION CONTAINING THE SAME” (PROVIBIO CO., LTD., priority 2024, published 2026).

The subject of data set [1] is T cells isolated from mouse spleens. The data set can be described thus: T cell proliferation inhibition (CFSE flow cytometry, anti-CD3/anti-CD28 activation). It is filed as cell-based, C57BL/6 mice. To be noted: mouse spleen T cells, CD3/CD28 activated, cultured three days. The method, then:
To verify the T cell proliferation inhibitory effect of the compounds according to the present invention, the following experiment was performed based on flow cytometry analysis using carboxyfluorescein diacetate succinimidyl ester (CFSE), a fluorescent dye that binds to intracellular molecules via covalent bonds.
Spleens were extracted from 7-week-old C57BL/6 mice, ground, and then separated into single cells using a strainer ([…], SPL). Red blood cells were removed using ACK (Ammonium-Chloride-Potassium) lysis buffer to isolate white blood cells.
Finally, using a MACS Magnetic Stand and LS column, T cells were isolated from the spleen.
The T cells isolated from the spleen were resuspended in 1 mL of free medium (RPMI-1640+200 U/mL penicillin+200 μg/mL streptomycin), and 0.3 μL of CFSE (10 mM) was added. The mixture was incubated at 37° C. for 5 minutes.
Free medium (10 mL) was added to stop the reaction, and the cells were centrifuged to obtain the cell pellet.
RPMI 1640 medium containing 10% FBS, 100 U/mL penicillin, 100 μg/mL streptomycin, and resuspended the cells. The cells were then seeded into a 96-well plate at a density of 2×10^5 cells per well and activated with CD3 and CD28 antibodies ([…]) to activate T cells.
The compound diluted in DMSO was added at concentrations of 10 nM, 100 nM, 1 μM, […], 30 μM, and 50 µM, with three wells per concentration, and cultured at 37° C. and 5% CO2 for three days. The cells were then analyzed using a FACS Canto instrument.
The proliferation inhibition rate (%) was calculated using the following formula: […]

Data set [2] concerns Human B Lymphocyte cell line, SU-DHL-8. The data set can be described thus: Relative cell viability (CCK-8), SU-DHL-8. It is filed as cell-based. To be noted: 48 hours, untreated cells (DMSO) = 100%. The method, then:
Human-derived B lymphoma cell line SU-DHL-8 (Cat. #CRL-2961) purchased from ATCC was cultured in RPMI-1640 medium containing […], 100 U/mL penicillin, and 100 μg/mL streptomycin.
The cell culture medium was then harvested, centrifuged at 1,300 rpm for 5 minutes, and the supernatant was removed. The cells were resuspended in the same medium and dispensed into a 96-well plate (Costar 96-well cell culture plate, Corning) at 90 μL per well, resulting in the conditions specified in Table 5.
Then, 10 μL of CCK-8 was added to each well, and the plates were incubated again at 37° C. in a 5% CO2 incubator for 4 hours.
In other words, when the survival rate of untreated cells (DMSO) is set at 100%, the relative cell survival rate in each group treated with the drug at different concentrations is indicated.

For `CN(C)C1CCN(CCCCCCCCCCCCNC(=O)c2cccnc2N)C1` (centres unmarked) [Compound 19, 2-Amino-N-(12-(3-(dimethylamino)pyrrolidin-1-yl)dodecyl) nicotinamide], the “Proliferation inhibition rate (%)” value in data set [1] (10 nM) is given as −14.40%; in data set [1] (100 nM), 100.00%; in data set [1] (1 μM), 100.00%; in data set [1] (10 μM), 100.00%; in data set [1] (30 μM), 100.00%; in data set [1] (50 μM) it was 100.00%. The “Relative cell viability (%)” value in data set [2] (SU-DHL-8, 1 μM) came to 8.51%; in data set [2] (SU-DHL-8, 10 μM), 7.51%; in data set [2] (SU-DHL-8, 30 μM), 5.98%; in data set [2] (SU-DHL-8, 50 μM), 5.08%.
For `CC1CN(CCCCCCCCCCCCNC(=O)c2cccnc2N)CC(C)O1` (centres unmarked) [Compound 21, 2-Amino-N-(12-(2,6-dimethylmorpholino)dodecyl) nicotinamide], the “Proliferation inhibition rate (%)” value in data set [1] (100 nM), in data set [1] (1 μM), in data set [1] (10 μM), in data set [1] (30 μM) and in data set [1] (50 μM) was 100.00% throughout. Further, the “Relative cell viability (%)” value in data set [2] (SU-DHL-8, 30 μM) is 3.70%.
`CC1CCN(CCCCCCCCCCCCNC(=O)c2cccnc2N)C1` (centres unmarked) [Compound 24, 2-Amino-N-(12-(3-methylpyrrolidin-1-yl)dodecyl) nicotinamide]: the “Proliferation inhibition rate (%)” value in data set [1] (100 nM), in data set [1] (1 μM), in data set [1] (10 μM), in data set [1] (30 μM) and in data set [1] (50 μM) was 100.00% in each case. Further, the “Relative cell viability (%)” value in data set [2] (SU-DHL-8, 30 μM) is listed as 0.62%.
`Nc1ncccc1C(=O)NCCCCCCCCCCCCN1CCS(=O)(=O)CC1` [Compound 25, 2-Amino-N-(12-(1,1-dioxidothiomorpholino)dodecyl) nicotinamide]: the “Proliferation inhibition rate (%)” value in data set [1] (1 μM), in data set [1] (10 μM), in data set [1] (30 μM) and in data set [1] (50 μM) was 100.00% throughout. Further, the “Relative cell viability (%)” value in data set [2] (SU-DHL-8, 30 μM) is listed as 0.11%; in data set [2] (SU-DHL-8, 50 μM), 0.95%.
Take `Nc1ncccc1C(=O)NCCCCCCCCCCCCN1CCC(F)C1` (centres unmarked) [Compound 26, 2-Amino-N-(12-(3-fluoropyrrolidin-1-yl)dodecyl) nicotinamide]: the “Proliferation inhibition rate (%)” value in data set [1] (100 nM), in data set [1] (1 μM), in data set [1] (10 μM), in data set [1] (30 μM) and in data set [1] (50 μM) was 100.00% each time. Moreover, the “Relative cell viability (%)” value in data set [2] (SU-DHL-8, 1 μM) worked out at 1.70%; in data set [2] (SU-DHL-8, 30 μM), 0.05%.
On to `Nc1ncccc1C(=O)NCCCCCCCCCCCCN1CCN(Cc2ccc(F)cc2)CC1` [Compound 27, 2-Amino-N-(12-(4-(4-fluorobenzyl)piperazin-1-yl)dodecyl) nicotinamide], for which the “Proliferation inhibition rate (%)” value in data set [1] (10 nM) worked out at 2.27%; in data set [1] (100 nM) it was 83.33%; in data set [1] (1 μM) it was 100.00%; in data set [1] (10 μM), 100.00%; in data set [1] (30 μM), 100.00%; in data set [1] (50 μM), 100.00%. Further, the “Relative cell viability (%)” value in data set [2] (SU-DHL-8, 1 μM) is recorded as 6.24%; in data set [2] (SU-DHL-8, 10 μM) it was 4.97%; in data set [2] (SU-DHL-8, 30 μM), 2.03%; in data set [2] (SU-DHL-8, 50 μM) it was 0.56%.
Take `CC(C)(C)OC(=O)N1CCN(CCCCCCCCCCCCNC(=O)c2cccnc2N)CC1` [Compound 111, tert-butyl-4-(12-(2-aminonicotinamido)dodecyl) piperazine-1-carboxylate]: the “Proliferation inhibition rate (%)” value is reported as 0.00% in data set [1] (10 nM); 100.00% in data set [1] (100 nM); 100.00% in data set [1] (1 μM); 100.00% in data set [1] (10 μM); 100.00% in data set [1] (30 μM); 100.00% in data set [1] (50 μM).
On to `CC(C)(C)OC(=O)N[C@@H]1CCCN(CCCCCCCCCCCCNC(=O)c2cccnc2N)C1` [Compound 117, tert-butyl-(R)-(1-(12-(2-aminonicotinamido)dodecyl)piperidin-3-yl)carbamate], for which the inhibition at 0.01 µM in data set [1] (Mus musculus, T-cell, 72 h, 10 nM, read-out: Proliferation inhibition rate (%)) is -15.8%. The inhibition at 0.1 µM in data set [1] (Mus musculus, T-cell, 72 h, 100 nM, read-out: Proliferation inhibition rate (%)) came to 100%. Also, the inhibition at 1 µM in data set [1] (Mus musculus, T-cell, 72 h, 1 μM, read-out: Proliferation inhibition rate (%)) was 100%. For the same compound, the inhibition at 10 µM in data set [1] (Mus musculus, T-cell, 72 h, 10 μM, read-out: Proliferation inhibition rate (%)) came to 100%. The inhibition at 30 µM in data set [1] (Mus musculus, T-cell, 72 h, 30 μM, read-out: Proliferation inhibition rate (%)) was 100%. For the same compound, in data set [1] (Mus musculus, T-cell, 72 h, 50 μM, read-out: Proliferation inhibition rate (%)), the inhibition at 50 µM was 100%.
On to `CN1CCN(CCCCCCCCCCCCNC(=O)c2cccnc2F)CC1` [Compound 121, 2-fluoro-N-(12-(4-methylpiperazin-1-yl)dodecyl) nicotinamide], for which the “Proliferation inhibition rate (%)” value in data set [1] (10 nM) stood at 0.00%; in data set [1] (100 nM), 0.00%; in data set [1] (1 μM) it was 0.00%; in data set [1] (10 μM), 30.00%; in data set [1] (30 μM) it was 100.00%; in data set [1] (50 μM), 100.00%.
Consider `Nc1ncccc1C(=O)NCCCCCCCCCCCCN1CC(F)(F)C1` [Compound 122, 2-Amino-N-(12-(3,3-difluoroazetidin-1-yl)dodecyl) nicotinamide], for which the “Proliferation inhibition rate (%)” value in data set [1] (10 nM) was 0.00%; in data set [1] (100 nM) it was 0.00%; in data set [1] (1 μM), 80.00%; in data set [1] (10 μM), 100.00%; in data set [1] (30 μM), 100.00%; in data set [1] (50 μM) it was 100.00%.
`COC1CCN(CCCCCCCCCCCCNC(=O)c2cccnc2N)C1` (centres unmarked) [Compound 126, 2-amino-N-(12-(3-methoxypyrrolidin-1-yl)dodecyl) nicotinamide]: the “Proliferation inhibition rate (%)” value in data set [1] (10 nM, listed as K-PB-48, 0.01 µM) worked out at 0.00%; in data set [1] (100 nM), 100.00%; in data set [1] (1 μM), 100.00%; in data set [1] (10 μM) it was 100.00%; in data set [1] (30 μM), 100.00%; in data set [1] (50 μM), 100.00%.
With `Nc1ncccc1C(=O)NCCCCCCCCCCCCN1CCOC1=O` [Compound 127, 2-amino-N-(12-(2-oxooxazolidin-3-yl)dodecyl) nicotinamide], the “Proliferation inhibition rate (%)” value in data set [1] (10 μM), in data set [1] (30 μM) and in data set [1] (50 μM) was 100.00% throughout.
`Nc1ncccc1C(=O)NCCCCCCCCCCCCNC1CCOC1` (centres unmarked) [Compound 128, 2-amino-N-(12-((tetrahydrofuran-3-yl)amino)dodecyl) nicotinamide]: the “Proliferation inhibition rate (%)” value in data set [1] (100 nM), in data set [1] (1 μM), in data set [1] (10 μM), in data set [1] (30 μM) and in data set [1] (50 μM) was 100.00% in each case.
As to `Nc1ncccc1C(=O)NCCCCCCCCCCCCN1CC=CC1` [Compound 129, 2-amino-N-(12-(2,5-dihydro-1H-pyrrol-1-yl)dodecyl) nicotinamide], the “Proliferation inhibition rate (%)” value in data set [1] (10 nM) is given as 0.00%; in data set [1] (100 nM) it was 90.00%; in data set [1] (1 μM), 100.00%; in data set [1] (10 μM) it was 100.00%; in data set [1] (30 μM), 100.00%; in data set [1] (50 μM), 100.00%.
